Source: the supplement of paper PMC10331698
± gives the standard deviation of the averaged measurements.

Legend:
Assay in all cases: level (log10 ratio to DMSO vehicle control); higher = higher biomarker level / cell amount than vehicle control
Details in all cases: in DMSO
Perfluoro-1-iodohexane = compound: FC(F)(F)C(F)(F)C(F)(F)C(F)(F)C(F)(F)C(F)(F)I [Perfluoro-1-iodohexane]
Protocol: (§1)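 BioMAP Diversity Plus panel of 12 human primary cell co-culture systems (3C, 4H, LPS, SAg, BT, BF4T, BE3C, CASM3C, HDF3CGF, KF3CT, MyoF, Mphg). Compounds were added 1 h before stimulation and left for 24 h (MyoF 48 h; BT 72 h for soluble read-outs or 6 d for IgG). Biomarkers were read by ELISA, cytotoxicity by SRB, PBMC viability and proliferation by Alamar Blue. Each well value was divided by the mean of 8 DMSO control wells on the same plate and log10 transformed; duplicate blinded samples were tested at 4 concentrations.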

[1] = compound: O=C(O)C(F)(F)C(F)(F)OC(F)(F)F [Perfluoro-3-methoxypropanoic acid]
Protocol: as §1

[2] = compound: C=CC(=O)OCC(F)(F)C(F)(F)C(F)(F)C(F)(F)C(F)(F)C(F)(F)C(F)(F)F [1H,1H-Perfluorooctyl acrylate]
Protocol: as §1

Perfluorodecanoic acid = compound: O=C(O)C(F)(F)C(F)(F)C(F)(F)C(F)(F)C(F)(F)C(F)(F)C(F)(F)C(F)(F)C(F)(F)F [Perfluorodecanoic acid]
Protocol: as §1

[3] = compound: O=C(O)C(F)(F)C(F)(F)C(F)(F)OC(F)(C(F)(F)F)C(F)(F)F [Perfluoro-4-isopropoxybutanoic acid]
Protocol: as §1

[4] = compound: O=S(=O)(O)C(F)(F)C(F)(F)C(F)(F)C(F)(F)C(F)(F)C(F)(F)F [Perfluorohexanesulfonic acid]
Protocol: as §1

[5] = compound: FC(F)(F)C(F)(F)C(F)(F)C(F)(F)C(F)(F)C(F)(F)C(F)(F)C(F)(F)CCS [2-(Perfluorooctyl)ethanthiol]
Protocol: as §1

Test System | level (log10) (Perfluoro-1-iodohexane; 6700 nM) | level (log10) (Perfluoro-1-iodohexane; 20000 nM) | level (log10) (Perfluoro-1-iodohexane; 60000 nM) | level (log10) ([1]; 6700 nM) | level (log10) ([1]; 20000 nM) | level (log10) ([1]; 60000 nM) | level (log10) ([2]; 6700 nM) | level (log10) ([2]; 20000 nM) | level (log10) ([2]; 60000 nM) | level (log10) (Perfluorodecanoic acid; 6700 nM) | level (log10) (Perfluorodecanoic acid; 20000 nM) | level (log10) ([3]; 6700 nM) | level (log10) ([3]; 20000 nM) | level (log10) ([3]; 60000 nM) | level (log10) ([4]; 6700 nM) | level (log10) ([4]; 20000 nM) | level (log10) ([4]; 60000 nM) | level (log10) ([5]; 6700 nM) | level (log10) ([5]; 20000 nM)
HDF3CGF:CD106/VCAM-1 | -0.027 ± 0.024 | -0.032 ± 0.014 | -0.405 ± 0.44 | -0.008 ± 0.02 | 0.0165 ± 0.052 | -0.0005 ± 0.036 | -0.016 ± 0.011 | -0.031 ± 0.013 | -0.097 ± 0.0057 | -0.0085 ± 0.026 | -0.623 ± 0.057 | -0.027 ± 0.062 | -0.0545 ± 0.067 | -0.0545 ± 0.00071 | 0.0105 ± 0.011 | 0.0165 ± 0.00071 | -0.0155 ± 0.0035 | -0.0255 ± 0.0064 | -0.0555 ± 0.059
HDF3CGF:CXCL8/IL-8 | -0.0055 ± 0.0021 | -0.002 ± 0.0057 | -0.024 ± 0.037 | 0.0045 ± 0.0064 | 0.0125 ± 0.0035 | 0.003 ± 0.017 | 0.0045 ± 0.0064 | 0.0045 ± 0.0064 | 0.0095 ± 0.0035 | 0.0065 ± 0.005 | 0.02 ± 0.011 | 0.0015 ± 0.00071 | 0.0135 ± 0.0035 | 0.0035 ± 0.0021 | 0.0045 ± 0.013 | 0.0035 ± 0.015 | 0.0065 ± 0.016 | -0.004 ± 0.0099 | -0.0095 ± 0.00071
HDF3CGF:CXCL9/MIG | 0 ± 0.0028 | -0.021 ± 0.0057 | -0.0325 ± 0.018 | -0.016 ± 0.016 | 0.0155 ± 0.019 | 0.019 ± 0.0014 | -0.0265 ± 0.0035 | -0.029 ± 0.03 | -0.0745 ± 0.0078 | -0.069 ± 0.048 | -0.27 ± 0.061 | -0.0125 ± 0.023 | 0.0185 ± 0.005 | 0.009 ± 0.024 | -0.0195 ± 0.0021 | -0.017 | 0.005 ± 0.042 | -0.0085 ± 0.0078 | -0.0125 ± 0.0092
HDF3CGF:CXCL10/IP-10 | -0.033 ± 0.014 | -0.0435 ± 0.0035 | -0.114 ± 0.076 | 0.001 ± 0.011 | 0.0055 ± 0.011 | -0.0135 ± 0.021 | -0.001 ± 0.0057 | -0.0455 ± 0.022 | -0.047 | -0.0745 ± 0.015 | -0.427 ± 0.019 | -0.0135 ± 0.0064 | -0.029 ± 0.011 | -0.0615 ± 0.0035 | 0.0035 ± 0.0064 | 0.0015 ± 0.021 | -0.0135 ± 0.012 | -0.027 ± 0.025 | -0.0495 ± 0.005
HDF3CGF:CXCL11/I-TAC | -0.0215 ± 0.011 | -0.0305 ± 0.016 | -0.183 ± 0.15 | -0.001 ± 0.023 | 0.0165 ± 0.012 | 0.0105 ± 0.00071 | -0.017 ± 0.011 | -0.0275 ± 0.037 | -0.063 ± 0.011 | 0.046 ± 0.0014 | -0.469 ± 0.28 | 0.002 ± 0.021 | 0.008 ± 0.0042 | -0.0025 ± 0.00071 | 0.01 | -0.004 ± 0.0099 | -0.004 ± 0.021 | -0.0135 ± 0.028 | -0.0355 ± 0.0092
HDF3CGF:Collagen I | -0.0285 ± 0.026 | -0.0365 ± 0.0092 | -0.045 ± 0.0071 | -0.0095 ± 0.07 | -0.0085 ± 0.052 | 0.058 ± 0.025 | -0.0065 ± 0.05 | 0.0415 ± 0.005 | 0.0675 ± 0.05 | -0.02 ± 0.025 | -0.0095 ± 0.04 | -0.0285 ± 0.067 | -0.043 ± 0.078 | 0.032 ± 0.12 | 0.0085 ± 0.015 | 0.0185 ± 0.015 | 0.0555 ± 0.067 | 0.0055 ± 0.052 | 0.0125 ± 0.052
HDF3CGF:Collagen III | -0.0405 ± 0.066 | -0.0755 ± 0.0021 | -0.178 ± 0.13 | -0.0025 ± 0.0078 | 0.009 ± 0.024 | 0.039 ± 0.05 | 0.067 ± 0.035 | 0.042 ± 0.04 | -0.0245 ± 0.084 | -0.08 ± 0.058 | -0.0755 ± 0.021 | -0.02 ± 0.051 | -0.0115 ± 0.011 | -0.0025 ± 0.057 | -0.0005 ± 0.022 | 0.0005 ± 0.015 | 0.0105 ± 0.043 | 0.0005 ± 0.033 | 0.002 ± 0.035
HDF3CGF:EGFR | 0.016 ± 0.05 | 0.0115 ± 0.043 | -0.035 ± 0.14 | -0.002 ± 0.0085 | 0.003 ± 0.0085 | 0.0165 ± 0.029 | 0.0075 ± 0.012 | 0.0265 ± 0.019 | -0.051 ± 0.093 | -0.075 ± 0.054 | -0.195 ± 0.026 | -0.001 ± 0.034 | -0.0035 ± 0.022 | -0.012 ± 0.024 | 0.0045 ± 0.025 | -0.0125 ± 0.039 | -0.021 ± 0.04 | -0.0295 ± 0.018 | -0.018 ± 0.04
HDF3CGF:M-CSF | 0.0155 ± 0.019 | 0.024 ± 0.0028 | -0.021 ± 0.034 | -0.005 ± 0.0085 | -0.0035 ± 0.0021 | -0.005 ± 0.0085 | 0.0085 ± 0.015 | -0.006 ± 0.0057 | -0.053 ± 0.069 | 0.023 ± 0.0057 | -0.275 ± 0.018 | -0.016 ± 0.0071 | -0.0135 ± 0.0078 | -0.0055 ± 0.005 | 0.001 ± 0.0085 | -0.012 ± 0.0028 | 0.0015 ± 0.00071 | -0.0185 ± 0.013 | -0.014 ± 0.0099
HDF3CGF:MMP-1 | 0.0065 ± 0.0035 | -0.0075 ± 0.029 | -0.034 ± 0.017 | -0.01 ± 0.011 | 0 ± 0.0071 | -0.0035 ± 0.021 | 0.013 ± 0.034 | 0.0425 ± 0.0078 | 0.0365 ± 0.019 | -0.041 ± 0.0028 | -0.174 ± 0.08 | -0.0055 ± 0.0035 | 0 ± 0.0028 | -0.0015 ± 0.011 | 0.001 ± 0.025 | -0.0095 ± 0.03 | 0.01 ± 0.028 | -0.0095 ± 0.022 | -0.0235 ± 0.044
HDF3CGF:PAI-I | 0.017 ± 0.011 | 0.005 ± 0.031 | -0.041 ± 0.014 | 0.0025 ± 0.0092 | 0.0135 ± 0.026 | 0.0185 ± 0.012 | 0.032 ± 0.011 | 0.0515 ± 0.037 | 0.036 ± 0.069 | 0.15 ± 0.051 | -0.107 ± 0.1 | -0.001 ± 0.033 | -0.0115 ± 0.025 | -0.0165 ± 0.013 | -0.0185 ± 0.019 | -0.0145 ± 0.023 | -0.004 ± 0.0057 | -0.077 ± 0.054 | -0.0885 ± 0.066
HDF3CGF:Proliferation 72hr | -0.0315 ± 0.019 | -0.028 ± 0.0014 | -0.468 ± 0.57 | -0.028 ± 0.0085 | 0.0125 ± 0.016 | 0.0225 ± 0.023 | 0.0035 ± 0.0092 | -0.056 ± 0.078 | -0.168 ± 0.0092 | 0.115 ± 0.025 | -0.934 ± 0.037 | 0.0305 ± 0.037 | 0.04 ± 0.055 | 0.051 ± 0.011 | 0.054 ± 0.035 | 0.072 ± 0.051 | 0.107 ± 0.024 | -0.003 ± 0.0071 | -0.0115 ± 0.013
HDF3CGF:SRB | 0.021 ± 0.035 | 0.0085 ± 0.018 | -0.0085 ± 0.067 | -0.0005 ± 0.042 | 0.014 ± 0.0071 | 0 ± 0.023 | -0.003 ± 0.0099 | 0.0015 ± 0.025 | 0.0115 ± 0.0092 | 0.0725 ± 0.044 | 0.131 ± 0.016 | -0.0125 ± 0.025 | 0.0115 ± 0.037 | -0.0055 ± 0.015 | 0.017 ± 0.011 | 0.0145 ± 0.022 | -0.009 ± 0.0085 | 0.0135 ± 0.023 | 0.011 ± 0.0085
